Measurements reported in patent publication US20090054509A1, “Octahydropentalene-Substituted Pyrazoline Derivatives, Their Prepartion and Use as Medicaments” (LABORATORIOS DEL DR. ESTEVE, S.A., priority 2005, published 2009).

Columns and labels:
[1] = biological target: T1, recombinant human cannabinoid 1 receptor (CB1) (Homo sapiens, UniProt P21554); assay: [35S]GTPγS binding assay, antagonism against WIN 55,212-2; assay type: biochemical; details: compound at 1 μM against WIN 55,212-2 dose response, CHO-hCB1 membranes, 100% = effect of internal standard CB1-antagonist
T1 construct: expressed in transfected cells; membranes prepared
Method: Chinese hamster ovary (CHO) cells stably expressing recombinant human cannabinoid 1 receptor (CB1) were cultured in nutrient mixture Ham's F 12 supplemented with 10% heat-inactivated fetal bovine serum, 2 mM L-glutamine, 50 U/ml penicillin, 50 U/ml streptomycin and 0.5 mg/ml geneticin. In order to obtain cells, culture flasks were washed twice with phosphate buffered saline and scraped. Then, cells were collected by centrifugation (200×g, 10 min) and stored dry at −80° C. Cells were homogenized in ice-cold 20 mM HEPES, 10 mM EDTA (pH 7.5) and centrifuged at 40,000×g for 15 min at 4° C. The pellet was resuspended in 20 mM HEPES, 0.1 mM EDTA (pH 7.5) and centrifuged for 15 min at 4° C. The final pellet was resuspended in 20 mM HEPES, 0.1 mM EDTA (pH 7.5), and divided in aliquots and stored at −80° C. until use.
The reaction was performed in 96-well plates. Membranes (15 µg protein/well) were incubated for 60 min at 30° C. in buffer (50 mM HEPES, 100 mM KCl, 5 mM MgCl2, 1 mM EDTA, 0.1% wt/vol bovine serum albumin, 5 μM GDP, saponin (10 μg/ml), 0.5 nM [^35S]GTPγS, pH 7.4) with compound at 1 μM final concentration in either the absence or presence of dose response curve of agonist WIN 55, 212-2 between 3 nM and 3 μM. The incubation was terminated by rapid filtration through Millipore Multiscreen glass fiber FB, and rinsed two-times with ice-cold assay buffer. Filter plates were dried and 30 μl of scintillation liquid was added. Radioactivity was determined using Wallac Microbeta Trilux. Each experiment was performed at least in duplicate. A WIN 55, 212-2 dose-response was systematically performed.
The average of basal [^35S]GTPγS binding was subtracted from all binding data. In order to compare the antagonism results from one screening campaign to another one, the difference between the maximal agonist effect of WIN 55, 212-2 alone, and the maximal antagonism effect due to WIN 55, 212-2 with an internal standard CB1-antagonist was defined as 100%.

[2] = In vivo testing for antiobesic activity, acute treatment; details: rats, acute oral administration; body weight difference versus control
Method: Normally handled rats were habituated to a reversed cycle 12/12 h, and the compound as well as saline was acutely orally administered. After administration the cumulated food intake (g) was measured at 6 h and 23 h. Following that the difference in body weight between control and compound treated animals was measured.

T1 sequence (P21554 whole entry): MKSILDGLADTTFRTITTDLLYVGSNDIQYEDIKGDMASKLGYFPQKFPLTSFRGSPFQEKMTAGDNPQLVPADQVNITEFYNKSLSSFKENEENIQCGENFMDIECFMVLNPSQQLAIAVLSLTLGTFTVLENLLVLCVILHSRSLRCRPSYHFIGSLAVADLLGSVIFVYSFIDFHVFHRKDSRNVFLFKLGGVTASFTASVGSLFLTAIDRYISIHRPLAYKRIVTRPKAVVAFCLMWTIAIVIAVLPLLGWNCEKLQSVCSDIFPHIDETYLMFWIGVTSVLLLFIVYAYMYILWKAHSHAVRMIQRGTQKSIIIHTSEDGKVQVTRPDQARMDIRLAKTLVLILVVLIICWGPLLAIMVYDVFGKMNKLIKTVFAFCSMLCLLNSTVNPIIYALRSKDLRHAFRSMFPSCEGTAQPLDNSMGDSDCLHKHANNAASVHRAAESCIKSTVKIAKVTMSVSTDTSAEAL

| Antagonism (%) ([1]; hydrochloride) | SMILES | Antagonism (%) [1] [%] | reduction of body weight [2] |
| --- | --- | --- | --- |
| – | C[C@H]1C(C(=O)NN2CC3CCCC3C2)=NN(c2ccc(Cl)cc2Cl)[C@H]1c1ccc(Br)cc1.Cl (relative stereo) [Example 3, cis-5-(4-bromophenyl)-1-(2,4-dichlorophenyl)-N-(hexahydrocyclopenta-[c]pyrrol-2(1H)-yl)-4-methyl-4,5-dihydro-1H-pyrazole-3-carboxamide hydrochloride] | 99 ± 2 | – |
| – | C[C@H]1C(C(=O)NN2CC3CCCC3C2)=NN(c2ccc(Cl)cc2Cl)[C@H]1c1ccc(F)cc1.Cl (relative stereo) [Example 5, cis-1-(2,4-dichlorophenyl)-5-(4-fluorophenyl)-N-(hexahydrocyclopenta-[c]pyrrol-2(1H)-yl)-4-methyl-4,5-dihydro-1H-pyrazole-3-carboxamide hydrochloride] | 108 ± 13 | – |
| – | COc1ccc([C@H]2[C@@H](C)C(C(=O)NN3CC4CCCC4C3)=NN2c2ccc(Cl)cc2Cl)cc1.Cl (relative stereo) [Example 7, cis-1-(2,4-dichlorophenyl)-N-(hexahydrocyclopenta[c]pyrrol-2(1H)-yl)-5-(4-methoxyphenyl)-4-methyl-4,5-dihydro-1H-pyrazole-3-carboxamide hydrochloride] | 148 | – |
| 102 ± 7 | C[C@H]1C(C(=O)NN2CC3CCCC3C2)=NN(c2ccc(Cl)cc2Cl)[C@H]1c1ccc(Cl)cc1.Cl (single isomer, unassigned) [1 (HCl), cis-5-(4-chlorophenyl)-1-(2,4-dichlorophenyl)-N-(hexahydrocyclopenta-[c]pyrrol-2(1H)-yl)-4-methyl-4,5-dihydro-1H-pyrazole-3-carboxamide hydrochloride] | – | – |
| 112 ± 0 | C[C@H]1C(C(=O)NN2CC3CCCC3C2)=NN(c2ccc(Cl)cc2Cl)[C@H]1c1ccc(Cl)cc1.Cl (single isomer, unassigned) [Example 1, cis-5-(4-chlorophenyl)-1-(2,4-dichlorophenyl)-N-(hexahydrocyclopenta-[c]pyrrol-2(1H)-yl)-4-methyl-4,5-dihydro-1H-pyrazole-3-carboxamide hydrochloride] | – | good activity |
